Measured values published in the supplement of paper PMC11451515.

System: NOMO1
Test: cell viability relative to DMSO control; higher = less cytotoxic
Settings: 48 h
Outline: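 Three leukemia lines were tested: NOMO1 and SEM at 500 cells/well and P12-Ichikawa at 1000 cells/well. Each was adapted for at least four passages in each medium and seeded in 5 μl in 1536-well plates, and library compounds in DMSO were pin-dosed from 47 μM to 0.79 nM in 11 threefold steps. After 48 h at 37°C, CellTiter-Glo One luminescence was read. Viability is a percentage relative to DMSO wells on each plate, with cell-free wells as background.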

[1] = HPLM + 10% dialyzed FBS, 0.000781 µM
[2] = HPLM + 10% dialyzed FBS, 0.00234 µM
[3] = HPLM + 10% dialyzed FBS, 0.00702 µM
[4] = HPLM + 10% dialyzed FBS, 0.0211 µM
[5] = HPLM + 10% dialyzed FBS, 0.0632 µM
[6] = HPLM + 10% dialyzed FBS, 0.19 µM
[7] = HPLM + 10% dialyzed FBS, 0.569 µM
[8] = HPLM + 10% dialyzed FBS, 1.71 µM
[9] = HPLM + 10% dialyzed FBS, 5.12 µM
[10] = HPLM + 10% dialyzed FBS, 15.4 µM
[11] = HPLM + 10% dialyzed FBS, 46.1 µM
[12] = RPMI 5 mM glucose + 10% FBS, 0.000781 µM
[13] = RPMI 5 mM glucose + 10% FBS, 0.00234 µM
[14] = RPMI 5 mM glucose + 10% FBS, 0.00702 µM
[15] = RPMI 5 mM glucose + 10% FBS, 0.0211 µM
[16] = RPMI 5 mM glucose + 10% FBS, 0.0632 µM
[17] = RPMI 5 mM glucose + 10% FBS, 0.19 µM
[18] = RPMI 5 mM glucose + 10% FBS, 0.569 µM
[19] = RPMI 5 mM glucose + 10% FBS, 1.71 µM
[20] = RPMI 5 mM glucose + 10% FBS, 5.12 µM
[21] = RPMI 5 mM glucose + 10% FBS, 15.4 µM
[22] = RPMI 5 mM glucose + 10% FBS, 46.1 µM
[23] = RPMI 5 mM glucose + 10% dialyzed FBS, 0.000781 µM
[24] = RPMI 5 mM glucose + 10% dialyzed FBS, 0.00234 µM
[25] = RPMI 5 mM glucose + 10% dialyzed FBS, 0.00702 µM
[26] = RPMI 5 mM glucose + 10% dialyzed FBS, 0.0211 µM
[27] = RPMI 5 mM glucose + 10% dialyzed FBS, 0.0632 µM
[28] = RPMI 5 mM glucose + 10% dialyzed FBS, 0.19 µM
[29] = RPMI 5 mM glucose + 10% dialyzed FBS, 0.569 µM
[30] = RPMI 5 mM glucose + 10% dialyzed FBS, 1.71 µM
[31] = RPMI 5 mM glucose + 10% dialyzed FBS, 5.12 µM
[32] = RPMI 5 mM glucose + 10% dialyzed FBS, 15.4 µM
[33] = RPMI 5 mM glucose + 10% dialyzed FBS, 46.1 µM

| SMILES | cell viability [1] [%] | cell viability [2] [%] | cell viability [3] [%] | cell viability [4] [%] | cell viability [5] [%] | cell viability [6] [%] | cell viability [7] [%] | cell viability [8] [%] | cell viability [9] [%] | cell viability [10] [%] | cell viability [11] [%] | cell viability [12] [%] | cell viability [13] [%] | cell viability [14] [%] | cell viability [15] [%] | cell viability [16] [%] | cell viability [17] [%] | cell viability [18] [%] | cell viability [19] [%] | cell viability [20] [%] | cell viability [21] [%] | cell viability [22] [%] | cell viability [23] [%] | cell viability [24] [%] | cell viability [25] [%] | cell viability [26] [%] | cell viability [27] [%] | cell viability [28] [%] | cell viability [29] [%] | cell viability [30] [%] | cell viability [31] [%] | cell viability [32] [%] | cell viability [33] [%] |
| --- | --- | --- | --- | --- | --- | --- | --- | --- | --- | --- | --- | --- | --- | --- | --- | --- | --- | --- | --- | --- | --- | --- | --- | --- | --- | --- | --- | --- | --- | --- | --- | --- | --- |
| Clc1cc(Cl)cc(CNc2ncncc2-c2ccc3c(c2)OCO3)c1 | 81.1 | 85.8 | 97.1 | 94.1 | 101 | 92.4 | 94.6 | 90.8 | 85.7 | 82.7 | 16.1 | 77.6 | 85.5 | 87.6 | 80.7 | 101 | 96.6 | 87.3 | 97.9 | 85.4 | 87.7 | 40.3 | 91.5 | 92.1 | 81.4 | 93.7 | 82 | 93.5 | 84.2 | 87.3 | 88.8 | 101 | 52.9 |
| CN1CCC(CC1)COC2=CN=C(N=C2)C3=CC(=CC=C3)CN4/N=C(\C=C/C4=O)C5=CC(=CC=C5)C#N | 105 | 111 | 103 | 118 | 119 | 127 | 111 | 111 | 123 | 120 | 101 | 106 | 110 | 103 | 107 | 118 | 119 | 108 | 123 | 113 | 116 | 114 | 88 | 111 | 103 | 109 | 109 | 115 | 102 | 120 | 118 | 100 | 114 |
| CC\1=C(C(=O)N(\C=C1)C2=CC=C(C=C2)C3=NC=CO3)/C4=CC5=CN=C(N)N=C5C=C4 | 98.8 | 107 | 126 | 112 | 108 | 117 | 122 | 122 | 123 | 108 | 94.9 | 97 | 103 | 96.1 | 104 | 112 | 116 | 114 | 107 | 124 | 113 | 100 | 99.1 | 89.6 | 103 | 119 | 123 | 107 | 108 | 101 | 107 | 117 | 90 |
| CC(C)(C)C(=O)Oc1ccc([S+](=O)([O-])Nc2ccccc2C(=O)NCC(=O)O)cc1 | 115 | 106 | 139 | 122 | 117 | 110 | 109 | 113 | 129 | 122 | 134 | 107 | 102 | 99.7 | 98.4 | 112 | 108 | 114 | 117 | 104 | 109 | 129 | 110 | 117 | 113 | 122 | 109 | 122 | 119 | 116 | 129 | 131 | 124 |
